The test system of this assay is cells attached to plastic surface. Description: detachment and removal of cells from plastic surface by cleaning solutions. It counts as cell-based. As for the experimental part:
The first step with solution A: Solution A contains proteases. Proteases can be used to digest proteins attached to plastic surface. For example, trypsin can be used to release a cell layer from plastic dishes. An application of trypsin (pre-warmed at 37° C.) can lead the single cell layer to detach from the plastic bottom in a few minutes. When incubated at 30° C. (may be similar to the temperature of the part of catheters out of body), trypsin may detach heavy, multilayer cells from plastic surface in 30 min. Biofilm often contains multi-layers of cells can be digested and detach the layers of cells from plastic surface 30 min after trypsin incubation at 37° C.
The second step with solution B: While most of the cells may be detached by protease treatment (such as trypsin), a few cells may remain on the plastic surface, particularly when the incubation temperature is not at optimal digestive temperature (such as 37° C. for trypsin) as may happen for the part of catheters out of patients. Solution B may be used to continue the treatment for two purposes. Solution B contains high ion concentration that may reduce attachment of cell to plastic surface at room temperature. High ion concentration such as addition of 0.45M NaCl may also further reduce proteins binding to the surface (Ouyang et al., 1997). The second purpose is to deactivate remaining trypsin as a buffer without calcium and magnesium. […] Although it is not necessary to understand the mechanism of action of the current invention, it is believed that a higher concentration of saline solution (0.45M NaCl or above), similar to elution buffer for ion chromatography, helps to clean cells and/or proteins still attached to plastic due to charge of the ions.
The third step with solution C: After most of the bacterial and cells detach from plastic and wash away, 70% ethanol may be applied to kill possible bacterial remains and/or denature proteins still attached on the plastic surface. […]

On to trypsin, for which the “time to detach heavy, multilayer cells from plastic surface” value (incubated at 30° C.) stood at 30 min. Also, the “time to digest and detach layers of cells (biofilm multi-layers) from plastic surface” value (trypsin incubation at 37° C.) amounted to 30 min. Further, where the note is “trypsin pre-warmed at 37° C.”, the “time for single cell layer to detach from the plastic bottom” value was “a few minutes”.

The values above are taken from patent US10441744B2, “Flushable catheter affixed to a wash line activated by a microfluidic pressure switch” (priority 2013, dated 2019).
